Reference: patent US9447083B2, “N-acylhydrazone derivatives for selective T cell inhibitor and anti-lymphoid malignancy drug” (CHONG KUN DANG PHARMACEUTICAL CORP., priority 2012, dated 2016)

Columns and labels:
Jurkat T cells = assay: Pro-apoptotic activity on Jurkat T cells (FITC-Annexin V / 7-AAD flow cytometry); type: cell-based; conditions: Homo sapiens, 72 hours, cells stained with FITC-Annexin V and 7-AAD among total cells, read-out: Cell Apoptosis Effect to Jurkat T Cell (% in 5 μM)
Method in brief: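 Jurkat cells at 1.5×10^5 cells/mL in RPMI/10% FBS treated with compounds at […] or 5 μM final for 72 h at 37° C, vehicle containing 1% DMSO. Stained with FITC-Annexin V and 7-AAD for 15 min at room temperature in pH 7.4 Hepes binding buffer. Apoptosis = % double-stained cells by flow cytometry.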

Molt4 = assay: Apoptosis of lymphoid malignancy cell lines: Molt4; type: cell-based; conditions: Homo sapiens, MOLT-4; Molt4, Acute T cell leukemia, 24 hours; read-out: Administration Dose (mean ± SD, μmol/L) Lethal Dose 50 (Apoptosis)
Method: (§1) Each of the acute T cell leukemia cell lines Jurkat, Molt4 and CCRF-CEM, the acute B cell leukemia cell line Raji and the […] cell lines KMS11, KMS12BM, KMS26, KMS28BM, and IM9 was re-suspended in 10% FBS-containing RPMI medium at a concentration of 1.5×10^5 cells/mL, and 200 μL of each of the cell suspensions was cultured in a flat bottom 96-well plate (Costar). The acute NK cell lymphoma cell line NK-92MI was re-suspended in α-MEM medium (supplemented with 20% FBS, 1×MEM vitamine solution, 50 μM 2-mercaptoethanol and 1× penicillin/streptomycin) at a concentration of 1.5×10^5 cells/mL, and 200 μL of the cell suspension was cultured in a flat bottom 96-well plate. The cells in each well was treated with 10 μL of each of 0.1, 0.25, 0.5, 0.75 and 1 μM of the compound diluted with RPMI medium, followed by that the cells were incubated in a 5% CO2 incubator at 37° C. for 24 hours. In a vehicle control group, cells were treated with 10 μL of medium containing 0.05% dimetylsulfoxide (DMSO, Sigma).
(§2) The cells were collected, and then the apoptosis thereof was analyzed by a flow cytometer after staining with Annexin V-7-AAD. The incubated cells were collected, placed in a 5-mL FACS tube (BD Falcon) and washed with 1 mL of fluorescence activated cell sorting (FACS) buffer (1%. FBS and 0.1% sodium azaide in PBS). The cells were re-suspended in 0.1 mL of FACS buffer, followed by that the cells were treated and stained with phycoerythrin-Annexin V at room temperature for 10 minutes. After 10 minutes of staining, the cells were treated and stained with 7-AAD at room temperature for 5 minutes. The stained cells were suspended in 0.3 mL of FACS buffer, and then analyzed by a flow cytometer. […] Thus, compounds 065, 108, 229 and 457 of the present invention can be used as a novel anti-lymphoid malignancy drug.

IM9 = assay: Apoptosis of lymphoid malignancy cell lines: IM9; type: cell-based; conditions: Homo sapiens, IM-9; IM9, Multiple myeloma, 24 hours; read-out: Administration Dose (mean ± SD, μmol/L) Lethal Dose 50 (Apoptosis)
Method: as §1, §2

Jurkat = assay: Apoptosis of lymphoid malignancy cell lines (Annexin V / 7-AAD): Jurkat; type: cell-based; conditions: Homo sapiens, Acute T cell leukemia, 24 hours, read-out: Administration Dose (mean ± SD, μmol/L) Lethal Dose 50 (Apoptosis)
Method: as §1, §2

NK-92MI = assay: Apoptosis of lymphoid malignancy cell lines: NK-92MI; type: cell-based; conditions: Acute NK cell lymphoma, 24 hours, read-out: Administration Dose (mean ± SD, μmol/L) Lethal Dose 50 (Apoptosis)
Method: as §1, with “In a vehicle control group, cells were treated with 10 μL of medium containing 0.05% dimetylsulfoxide (DMSO, Sigma).” left out
(§3) The cells were collected, and then the apoptosis thereof was analyzed by a flow cytometer after staining with Annexin V-7-AAD. The incubated cells were collected, placed in a 5-mL FACS tube (BD Falcon) and washed with 1 mL of fluorescence activated cell sorting (FACS) buffer (1%. FBS and 0.1% sodium azaide in PBS). […] The stained cells were suspended in 0.3 mL of FACS buffer, and then analyzed by a flow cytometer. […]

KMS26 = assay: Apoptosis of lymphoid malignancy cell lines: KMS26; type: cell-based; conditions: KMS-26; KMS26, Multiple myeloma, 24 hours; read-out: Administration Dose (mean ± SD, μmol/L) Lethal Dose 50 (Apoptosis)
Method: as §1, with “In a vehicle control group, cells were treated with 10 μL of medium containing 0.05% dimetylsulfoxide (DMSO, Sigma).” left out
as §3

KMS28BM = assay: Apoptosis of lymphoid malignancy cell lines: KMS28BM; type: cell-based; conditions: KMS-28BM, Multiple myeloma, 24 hours, read-out: Administration Dose (mean ± SD, μmol/L) Lethal Dose 50 (Apoptosis)
Method: as §1, with “In a vehicle control group, cells were treated with 10 μL of medium containing 0.05% dimetylsulfoxide (DMSO, Sigma).” left out
as §3

KMS12BM = assay: Apoptosis of lymphoid malignancy cell lines: KMS12BM; type: cell-based; conditions: Homo sapiens, KMS-12-BM, Multiple myeloma, 24 hours, read-out: Administration Dose (mean ± SD, μmol/L) Lethal Dose 50 (Apoptosis)
Method: as §1, with “In a vehicle control group, cells were treated with 10 μL of medium containing 0.05% dimetylsulfoxide (DMSO, Sigma).” left out
as §3

KMS11 = assay: Apoptosis of lymphoid malignancy cell lines: KMS11; type: cell-based; conditions: Homo sapiens, KMS-11; KMS11, Multiple myeloma, 24 hours; read-out: Administration Dose (mean ± SD, μmol/L) Lethal Dose 50 (Apoptosis)
Method: as §1, with “In a vehicle control group, cells were treated with 10 μL of medium containing 0.05% dimetylsulfoxide (DMSO, Sigma).” left out
as §3

CCRF-CEM = assay: Apoptosis of lymphoid malignancy cell lines: CCRF-CEM; type: cell-based; conditions: Homo sapiens, Acute T cell leukemia, 24 hours, read-out: Administration Dose (mean ± SD, μmol/L) Lethal Dose 50 (Apoptosis)
Method: as §1, with “In a vehicle control group, cells were treated with 10 μL of medium containing 0.05% dimetylsulfoxide (DMSO, Sigma).” left out
as §3

Raji = assay: Apoptosis of lymphoid malignancy cell lines: Raji; type: cell-based; conditions: Homo sapiens, Acute B cell leukemia, 24 hours, read-out: Administration Dose (mean ± SD, μmol/L) Lethal Dose 50 (Apoptosis)
Method: as §1, with “In a vehicle control group, cells were treated with 10 μL of medium containing 0.05% dimetylsulfoxide (DMSO, Sigma).” left out
as §3

[1] = system: Experimental Autoimmune Encephalomyelitis (EAE); assay: Experimental Autoimmune Encephalomyelitis (EAE) model of multiple sclerosis; type: in vivo, mouse; conditions: 1 mg/kg orally daily from 17 to 37 days
Method: At the first day of induction, myelin oligodendrocyte glycoprotein35-55 (MOG35-55, Peptron) (200 ug), mycobacterium tuberculosis (Difco, Cat No. 231141) (500 μg) and complete Freund's adjuvant (Sigma Aldrich, Cat No. F5506) were mixed with each other and immersed for 5 minutes. 0.1 mL of the immersed peptide was injected subcutaneously into both the flanks of each of C57BL/6 mice (9 week old, female, 18±2 g), followed by that […] pertussis toxin (Sigma Aldrich, Cat No. P2980) (200 ng) was injected by intravenously. At 2 days, the same amount of pertussis toxin was administered intravenously. Whether the immersion leaked from the injected portion of the mice was checked, and whether EAE was induced was also examined by visual observation from 7 days.
Compound 229 and Fingolimod that is currently clinically used for the treatment of multiple sclerosis were completely dissolved in a Cremophor EL-ethanol mixture (1:1, v/v) in an amount corresponding to 7.5% (v/v) of the administration volume, and the compound solution was diluted in PBS. The two groups of the mice were administered orally with 200 μL of the diluted solution of compound 229 at each doses of 25 and 50 mg/kg separately, and the third group of the mice was administered orally with 200 μL of the diluted solution of fingolimode at a dose of 1 mg/kg on a daily basis from 17 days to 37 days (for total 21 times) after starting of the experiment. In a vehicle control group, 200 μL of a Cremophor EL-ethanol-PBS mixture (3.75:3.75:92.5, v/v/v) was administered to each mouse in the same manner as the treated group. The index of EAE was recorded daily based on visual observation using a severity index system (6-point (0 to 5) scale) from 7 days of the experiment. The symptoms of multiple sclerosis were evaluated based on the following criteria:
2: limp tail and hind limb weakness;
4: hind limb paralysis and forelimb weakness; and […]

[2] = system: acute graft-versus-host disease; assay: Acute graft-versus-host disease, mouse model of allogeneic bone marrow transplantation; type: in vivo; conditions: 25 mg/kg intraperitoneally daily for 10 days
Excerpt: Lymph nodes, spleens, both femurs and tibias were aseptically collected from normal C57BL/6 mice (8-12 week old, female, 20-23 g), and T cells were isolated from the lymph nodes and spleens in the same manner as described in Experimental Example 2 and were re-suspended in PBS at a concentration of 8×10^7 cells/mL. The femurs and tibias were cut at the ends, and the bone marrow was flushed from femurs and tibias with RPMI medium using a syringe (21G for femur and 26G for tibia) to extract the marrow, which was then suspended and passed through a cell strainer to make a single cell suspension. The bone marrow cell suspension was centrifuged at 1200 rpm for 5 minutes, and the supernatant was removed, then the cells were added to 1 mL of ACK lysis buffer and vortexed for 1 minute, followed by washing with RPMI medium. […] The incubated cell suspension was added with 5 mL of MACS buffer, centrifuged for 5 minutes, washed, and then re-suspended in 2 mL of MACS buffer. The suspended cells were placed in the autoMACS Pro Separator, and T cells bound to the CD90.2 microbeads were removed. The separated T cell-depleted bone marrow cells (TCD-BM) were washed with PBS and re-suspended in PBS at a concentration of 1×10^8 cells/mL. Normal BDF1 mice (10-12 week old, female, 20-23 g) were irradiated with 850 rad of γ radiation using an irradiator, and then 100 μL of a graft obtained by mixing the C57BL/6 mouse T cells and the TCD-BM at a ratio of 1:1 was injected into the tail vein of the BDF1 mice. In a group treated with compound 229 of the present invention, compound 229 was completely dissolved in a Cremophor EL-ethanol mixture (1:1, v/v) in an amount corresponding to 15% (v/v) of the administration volume, after which the compound solution was diluted in PBS, and the dilution was administered intraperitoneally to each mouse at a dose of 25 mg/kg daily for 10 days from the day of the graft injection. Meanwhile, Tacrolimus that is a currently clinically used immunosuppressive agent was administered to mice of another group in the same amount as compound 229 in order to compare the inhibitory effect on acute graft-versus-host disease, and mice of a vehicle control group were administered with 200 μL of a Cremophor EL-ethanol-PBS (7.5:7.5:85, v/v/v) in the same manner as the treated groups. Then, the survival of mice was monitored daily, and the severity of GVHD was assessed twice a week with clinical GVHD scoring system for each a decrease in weight loss, hunched posture, decreased activity, fur ruffling and skin lesions. Each parameters were scored on a 3-point (0 to 2) scale.

Cc1cc(C)c(OCC(=O)N/N=C/c2cccc3[nH]ccc23)c(C)c1 [Compound 065, (E)-N′-((1H-indol-4-yl)methylene)-2-(mesityloxy)acetohydrazide]
cytotoxicity at 5 µM (Jurkat T cells): 100% | EC50 (Molt4): 1.58 ± 0.03 µmol/L | EC50 (IM9): 1.21 ± 0.01 µmol/L | EC50 (Jurkat): 0.79 ± 0.01 µmol/L

Cc1cc(C)c(OCC(=O)N/N=C/c2ccc3cc[nH]c3c2)c(C)c1 [Compound 108, (E)-N′-((1H-indol-6-yl)methylene)-2-(mesityloxy)acetohydrazide]
cytotoxicity at 5 µM (Jurkat T cells): 100% | EC50 (Molt4): 1.38 ± 0.04 µmol/L | EC50 (IM9): 1.41 ± 0.03 µmol/L | EC50 (Jurkat): 0.78 ± 0.04 µmol/L

Cc1cc(C)c(OCC(=O)N/N=C/c2ccc3cc[nH]c3c2)c(C2CCOCC2)c1 [Compound 457, (E)-N′-((1H-indol-6-yl)methylene)-2-(2,4-dimethyl-6-(tetrahydro-2H-pyran-4-yl)phenoxy)acetohydrazide]
EC50 (NK-92MI): 0.46 ± 0.01 µmol/L | EC50 (KMS26): 0.55 ± 0.12 µmol/L | EC50 (KMS28BM): 0.47 ± 0.06 µmol/L | cytotoxicity at 5 µM (Jurkat T cells): 100% | EC50 (Molt4): 0.25 ± 0.11 µmol/L | EC50 (KMS12BM): 0.22 ± 0.02 µmol/L | EC50 (KMS11): 0.63 ± 0.31 µmol/L | EC50 (CCRF-CEM): 0.17 µmol/L | EC50 (IM9): 0.38 ± 0.01 µmol/L | EC50 (Jurkat): 0.2 ± 0.01 µmol/L | EC50 (Raji): 0.68 ± 0.05 µmol/L

CCCCCCCCc1ccc(CCC(N)(CO)CO)cc1 [Fingolimod, reference compound]
severity index (EAE, 0 to 5 scale) ([1]; at 17 days (start of administration)): 3±1 | severity index (EAE, 0 to 5 scale) ([1]; at 39 days, vehicle 2.5±0.75): 1.5±0.5 | severity index (EAE, 0 to 5 scale) ([1]; at 101 days, vehicle 2.33±0.25): 2.7±0.25

C=CC[C@@H]1/C=C(\C)C[C@H](C)C[C@H](OC)[C@H]2O[C@@](O)(C(=O)C(=O)N3CCCC[C@H]3C(=O)O[C@H](/C(C)=C/[C@@H]3CC[C@@H](O)[C@H](OC)C3)[C@H](C)[C@@H](O)CC1=O)[C@H](C)C[C@@H]2OC [Tacrolimus, reference compound]
severity of GVHD (clinical scoring system) [2]: ruffled fur and severe skin lesions | survival rate ([2]; final (day 70), vehicle 10%): 50% | mouse death, days after cell transplantation ([2]; vehicle from 29 days): ≥ 23 days
